Data taken from ChEMBL document CHEMBL1123754, “N6-phenyladenosines: pronounced effect of phenyl substituents on affinity for A2 adenosine receptors” (J Med Chem, 1987).

Experiments:
[1] = target: T1, Adenosine receptor A1 (Gallus gallus, UniProt P49892); test: Displacement of [125I]ABA from adenosine A1 receptor of chick cerebellar membrane
T1 sequence (P49892 whole entry): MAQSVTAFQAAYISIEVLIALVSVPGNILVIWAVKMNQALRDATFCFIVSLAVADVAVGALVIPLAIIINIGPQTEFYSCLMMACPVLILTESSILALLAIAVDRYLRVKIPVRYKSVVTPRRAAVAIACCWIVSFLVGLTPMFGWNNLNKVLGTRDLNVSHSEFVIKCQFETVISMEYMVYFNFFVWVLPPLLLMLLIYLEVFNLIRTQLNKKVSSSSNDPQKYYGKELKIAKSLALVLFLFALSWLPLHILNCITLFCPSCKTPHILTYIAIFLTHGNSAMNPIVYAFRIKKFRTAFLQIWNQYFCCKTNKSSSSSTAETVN

[2] = Relative affinities for adenosine A2 and A1 receptors
[3] = target: Adenosine A2 receptor (Rattus norvegicus, UniProt P29276+P30543)
Description: Displacement of [3H]-NECA from adenosine A2 receptor of rat striatal membrane

[4] = target: T1, Adenosine receptor A1; test: Binding affinity for Adenosine A1 receptor using [125I]-ABA in chick cerebellar membrane; assay type: cell membranes, Cerebellum

IC50 [1] [nM] | Selectivity [2] | IC50 [3] [nM] | IC50 [4] [nM] | Structure (SMILES)
25.3 | 403 | 10200 |  | CCc1cccc(Nc2ncnc3c2ncn3C2O[C@H](CO)[C@@H](O)[C@H]2O)c1 (stereo partly drawn)
12.8 | 75 | 960 |  | CCc1ccc(Nc2ncnc3c2ncn3C2O[C@H](CO)[C@@H](O)[C@H]2O)cc1 (stereo partly drawn)
4.6 | 140 | 660 |  | OC[C@H]1O[C@@H](n2cnc3c(Nc4ccccc4)ncnc32)[C@H](O)[C@@H]1O [N6-PHENYLADENOSINE]
2.5 |  |  |  | OC[C@H]1O[C@@H](n2cnc3c(NC4CCCCC4)ncnc32)[C@H](O)[C@@H]1O
 | 690 | 7640 | 11.1 | OC[C@H]1OC(n2cnc3c(Nc4cccc(O)c4)ncnc32)[C@H](O)[C@@H]1O (stereo partly drawn)
19 | 620 | 11900 |  | OC[C@H]1OC(n2cnc3c(Nc4cccc(I)c4)ncnc32)[C@H](O)[C@@H]1O (stereo partly drawn)
8.5 | 110 | 920 |  | Cc1ccc(Nc2ncnc3c2ncn3C2O[C@H](CO)[C@@H](O)[C@H]2O)cc1 (stereo partly drawn)
42.1 | 220 | 9300 |  | OC[C@H]1OC(n2cnc3c(Nc4cccc(B(O)O)c4)ncnc32)[C@H](O)[C@@H]1O (stereo partly drawn)
8.5 | 150 | 1280 |  | OC[C@H]1OC(n2cnc3c(Nc4ccc(I)cc4)ncnc32)[C@H](O)[C@@H]1O (stereo partly drawn)
13.1 | 65 | 860 |  | OC[C@H]1OC(n2cnc3c(Nc4ccc(F)cc4)ncnc32)[C@H](O)[C@@H]1O (stereo partly drawn)
6.4 | 275 | 1760 |  | COc1ccc(Nc2ncnc3c2ncn3[C@@H]2O[C@H](CO)[C@@H](O)[C@H]2O)cc1
10.3 | 155 | 1600 |  | OC[C@H]1OC(n2cnc3c(Nc4cccc(F)c4)ncnc32)[C@H](O)[C@@H]1O (stereo partly drawn)
45.1 | 225 | 10100 |  | Nc1cccc(Nc2ncnc3c2ncn3C2O[C@H](CO)[C@@H](O)[C@H]2O)c1 (stereo partly drawn)

Structure (SMILES) | IC50 [1] [nM] | Selectivity [2] | IC50 [3] [nM] | IC50 [4] [nM]
CCNC(=O)[C@H]1O[C@@H](n2cnc3c(N)ncnc32)[C@H](O)[C@@H]1O [NECA] | 17 |  |  | 
